The source of these data is US20240287614A1, “RECIPROCAL MICRORNA-MRNA PAIRINGS AS BIOMARKERS AND THERAPEUTIC TARGETS IN CANCER” (UNIVERSITY OF MARYLAND, EASTERN SHORE, priority 2023, published 2024).

For series [1], the system named is prostate cancer (LNCaP and PC-3) and prostate cancer (RC77 T/E and MDA PCa 2b) cell lines. The experiment in a line: Caspase 3/7 activity-based apoptosis assay, prostate cancer cell lines. Also on record: species or system human. Particulars: for apoptosis (caspase 3/7 activity), docetaxel treatment alone: without miRNA mimic/antagomir transfection. The method, then:
[…] RC77 T/E, a primary prostate cancer cell line derived from a patient, was kindly provided by Dr. Johng Rhim at Center for Prostate Disease Research (CPDR) in Rockville, MD. LNCaP and PC-3 were served as prostate cancer cell line models, and RC77 T/E and MDA PCa 2b were served as prostate cancer cell models in the study. The cells were cultured in specific cell culture media, LNCaP was cultured in RPMI with 10% fetal bovine serum (FBS), PC-3 was cultured in DMEM with 10% FBS, MDA PCa 2b were cultured in BRFF-HPC1 with 20% FBS and RC77 T/E was cultured in Keratinocyte SFM with Human Recombinant Epidermal Growth Factor (EGF 1-53) and Bovine Pituitary Extract (BPE). Cells were maintained at 37° C. in a 5% CO2 incubator. LNCaP, PC-3 and MDA PCa 2b cells were seeded at density 3×10^4 cells/well in 6-well plates. RC77 T/E cells were seeded at density 5×10^4 cells/well in 6-well plates. The cells were allowed to grow for 24 h and then were either transfected with miR-34a-5p mimic, miR-99b-5p mimic, or miR-96-5p antagomir using DharmaFECT4 transfection reagent (Dharmacon), according to the manufacturer's protocol. After 24 h, the cells were replaced with fresh media then incubated for 24 h. miR-34a-5p mimic, miR-99b-5p mimic, miR-96-5p antagomir, and nonsense miRNA mimic and antagomir controls were purchased from Ambion. Nonsense/scrambled miRNA mimic and antagomir were used as negative controls.
For the measurement of apoptosis initiation by transfection of miRNA mimic or antagomir in prostate cancer cells, the transfected cells 5000 cells/well were seeded onto 96-well cell culture plates (Corning) and then incubated overnight. The miRNA mimic/antagomir transfected cells were then treated with vehicle or […] of Docetaxel. 24 h after the vehicle or drug treatment, the apoptosis assays were performed using Apo-ONE Caspase-3/7 Assay Kit (Promega Corporation) according to the protocol described by the manufacturer. 100 μL of homogeneous Caspase-3/7 reagent was added to the sample plate and incubated at room temperature for 1 h. Fluorescence was detected for measuring the apoptosis state (Caspase 3/7 activity) using Biotek Synergy HT Microplate Reader (BioTek) at wavelengths of 499 nm and 521 nm for excitation and emission, respectively.

Series [2] has as its system HIF1A. The experiment in a line: Western blot of HIF1a in transfected prostate cancer cells. The class given is cell-based, human. The conditions noted are these: mimic transfected vs NS transfected. On the procedure:
(§1) […] RC77 T/E, a primary prostate cancer cell line derived from a patient, was kindly provided by Dr. Johng Rhim at Center for Prostate Disease Research (CPDR) in Rockville, MD. LNCaP and PC-3 were served as prostate cancer cell line models, and RC77 T/E and MDA PCa 2b were served as prostate cancer cell models in the study. The cells were cultured in specific cell culture media, LNCaP was cultured in RPMI with 10% fetal bovine serum (FBS), PC-3 was cultured in DMEM with 10% FBS, MDA PCa 2b were cultured in BRFF-HPC1 with 20% FBS and RC77 T/E was cultured in Keratinocyte SFM with Human Recombinant Epidermal Growth Factor (EGF 1-53) and Bovine Pituitary Extract (BPE). Cells were maintained at 37° C. in a 5% CO2 incubator. LNCaP, PC-3 and MDA PCa 2b cells were seeded at density 3×10^4 cells/well in 6-well plates. RC77 T/E cells were seeded at density 5×10^4 cells/well in 6-well plates. […]
(§2) For measurement of the gene expression at protein level, proteins were extracted using M-PER Mammalian Protein Extraction Reagent (Thermo Fisher Scientific) with protease and phosphatase inhibitor cocktail (Thermo Fisher Scientific). Protein concentrations were quantified using BCA assay kit (Thermo Fisher Scientific). […]

Series [3] deals with IGFBP2. Kind of series: Western blot of IGFBP2 in transfected prostate cancer cells. The conditions noted are these: mimic transfected vs NS transfected. The class given is cell-based, human. On the procedure:
as §1, §2

The subject of series [4] is PIK3CB. Kind of series: RT-qPCR of PIK3CB expression after miRNA mimic transfection. The class given is cell-based, human. Particulars: African American and European American prostate cancer cells; vs nonsense/scrambled (NS) miRNA control. The method, then: as §1
(§3) For the measurement of gene expression level, total RNA was isolated using miRNeasy Mini Kit (50) (Qiagen) from the prostate cancer cells used in the study. Quantification of total RNA samples were done using NanoVue Plus spectrophotometer (GE Healthcare). […] Reverse transcription was performed using iScript Reverse Transcription Supermix kit (Bio-Rad) to generate cDNA then followed by performing quantitative PCR (qPCR) assays using SsoAdvanced Universal SYBR Green supermix kit (Bio-Rad). […]

Series [5] concerns prostate cancer (LNCaP and PC-3) and prostate cancer (RC77 T/E and MDA PCa 2b) cell lines. The experiment in a line: BrdU-labeling cell proliferation assay. Particulars: PC-3, RC77 T/E and MDA PCa 2b, 48 h transfection, vs NS. The class given is cell-based, human. The method, then: as §1
LNCaP, PC-3, RC77 T/E and MDA PCa 2b cells were seeded at density 3×10^4 cells/well in 6-well culture plates. […] 100 μL of stop solution was used to stop further reaction and followed by checking absorbance at dual wavelengths of 450 nm and 540 nm using Multiskan FC microplate photometer (Thermo Scientific).

Series [6] deals with PI3Kβ. The experiment in a line: Western blot of PI3Kβ in transfected prostate cancer cells. The class given is cell-based, human. The conditions noted are these: mimic transfected vs NS transfected. The method, then: as §1, §2
Series [7] relates to IGFBP2. Kind of series: RT-qPCR of IGFBP2 expression after miRNA mimic transfection. Particulars: African American and European American prostate cancer cells; vs nonsense/scrambled (NS) miRNA control. The class given is cell-based, human. The method, then: as §1, §3
For series [8], the system named is HIF1A. The experiment in a line: RT-qPCR of HIF1A expression after miRNA mimic transfection. The class given is cell-based, human. Particulars: African American and European American prostate cancer cells; vs nonsense/scrambled (NS) miRNA control. The method, then:
as §1, §3

Setting [9] is: RC77 T/E and MDA PCa 2b, 11 mM of Docetaxel, 24 h.

Consider `CC(=O)O[C@@]12CO[C@@H]1C[C@H](O)[C@@]1(C)C(=O)[C@H](O)C3=C(C)[C@@H](OC(=O)[C@H](O)[C@@H](NC(=O)OC(C)(C)C)c4ccccc4)C[C@@](O)([C@@H](OC(=O)c4ccccc4)[C@H]21)C3(C)C` [docetaxel, reference compound], for which the “apoptosis (caspase 3/7 activity), docetaxel treatment alone” value in series [1] (LNCaP, 11 mM of Docetaxel, 24 h) is “significantly induced apoptosis”; in series [1] (setting [9]), “not”; in series [1] (androgen-independent PC-3, 11 mM of Docetaxel, 24 h) it was “not”.

Regarding “miR-34a-5p mimic: miRNA mimic of miR-34a-5p (SEQ ID NO: 1, UGGCAGUGUCUUAGCUGGUUGU), purchased from Ambion (listed as RNA, chemistry not given here; listed as Homo sapiens)”, in series [2], the “HIF1a protein level (Western blot)” value is “downregulated”. In series [3], the “IGFBP2 protein level (Western blot)” value is listed as “downregulated”. Moreover, the “PIK3CB expression (RT-qPCR)” value in series [4] is on record as “decreased”. Moreover, the “cell proliferation (BrdU labeling)” value in series [5] is listed as “reduction”. Besides, the “PI3Kβ protein level (Western blot)” value in series [6] was “downregulated”. In series [7], the “IGFBP2 expression (RT-qPCR)” value is “decreased”. Further, the “HIF1A expression (RT-qPCR)” value in series [8] was “decreased”. Further, the “docetaxel-induced cytotoxicity (caspase 3/7 activity), combination with docetaxel” value in series [1] (LNCaP cells, 11 mM of Docetaxel, 24 h) was “further enhanced”. Also, the “apoptosis (caspase 3/7 activity), transfection in the presence of docetaxel” value in series [1] (setting [9]) is on record as “significantly induced apoptosis”. For the same compound, the “cell apoptosis (caspase 3/7 activity) compared with NS transfected cells” value in series [1] (absence of docetaxel (vehicle control), LNCaP, PC-3, RC77 T/E, MDA PCa 2b) is on record as “overall generalized or significant increase”.
